Assay results as given in EPA's ToxRefDB 2.

Assays:
mouse [1] = details: Combined chronic toxicity/carcinogenicity, cd1, Oral, Gavage/Intubation, dose end: 24 month, group: systemic
rat [2] = details: Combined chronic toxicity/carcinogenicity; Oral; Gavage/Intubation; dose end: 104 week; group: systemic; systemic / in life observation / body weight / body weight gain + systemic / in life observation / water consumption / water consumption + …
rat [3] = details: Subchronic oral toxicity in rodents, sprague dawley, Gavage/Intubation, dose end: 13 week, group: systemic
dog [4] = details: Subchronic oral toxicity in nonrodent, beagle, Capsule, dose end: 13 week, group: systemic
rat [5] = details: Multigenerational reproductive toxicity study, other, Oral, Gavage/Intubation, dose end: 2 generation
dog [6] = details: Chronic toxicity; beagle; Oral; Capsule; dose end: 52 week; group: systemic; systemic / in life observation / body weight / body weight gain + systemic / in life observation / clinical signs / salivation + systemic / …
rat [7] = details: Prenatal developmental toxicity study, Charles River COBS CD rats, Oral, Gavage/Intubation, dose end: 20 GD
mouse [8] = details: Subchronic oral toxicity in rodents, other, Feed, dose end: 13 week, group: systemic, systemic / clinical chemistry / [other] / [other] + systemic / clinical chemistry / alderin epoxidase / alderin epoxidase + systemic / …
mouse [9] = details: Combined chronic toxicity/carcinogenicity; other; Oral; Feed; dose end: 104 week; group: systemic; systemic / pathology microscopic / blood / leukemia + systemic / pathology microscopic / blood / lymphoma nos + systemic / pathology …
rabbit = details: Prenatal developmental toxicity study, new zealand white, Oral, Gavage/Intubation, dose end: 19 GD
rat [10] = details: Subchronic oral toxicity in rodents, sprague dawley, Gavage/Intubation, dose end: 13 week, group: systemic, systemic / clinical chemistry / thyroxine (t4) / thyroxine (t4), total + systemic / organ weight / thyroid gland / absolute + systemic / …
rat [11] = details: Subchronic dermal toxicity, sprague dawley, Topical, dose end: 21 day, group: systemic
[12] = systemic / organ weight / ovary / absolute + systemic / organ weight / ovary / relative to body weight + systemic / organ weight / adrenal …
[13] = systemic / organ weight / liver / absolute + systemic / in life observation / body weight / body weight gain + systemic / in life …
[14] = systemic / in life observation / clinical signs / watery stools
[15] = group: offspring, systemic / in life observation / clinical signs / reduced body size
[16] = group: parental, systemic / in life observation / body weight / body weight gain
[17] = group: developmental, systemic / in life observation / body weight / offspring (pup) weight
[18] = group: maternal, systemic / in life observation / body weight / body weight gain + systemic / in life observation / clinical signs / salivation
[19] = group: developmental, developmental / developmental malformation / brain / hydrocephaly + developmental / developmental malformation / mouth / jaw / cleft palate…
[20] = group: maternal, systemic / in life observation / body weight / body weight gain + systemic / in life observation / food consumption / food consumption + …
[21] = systemic / clinical chemistry / triiodothyronine (t3) / triiodothyronine (t3), total

CC1(C)[C@H](C(=O)O[C@H](C#N)c2cccc(Oc3ccccc3)c2)[C@@H]1C(Br)C(Br)(Br)Br (stereo not given in full) [Tralomethrin]
LEL (mouse [1]; [12]): 0.75 mg/kg/day
NEL (mouse [1]; [12]): < 0.75 mg/kg/day
LOAEL (mouse [1]; systemic / pathology gross / skin / lesion(s) (nos)): 3 mg/kg/day
NOAEL (mouse [1]; systemic / pathology gross / skin / lesion(s) (nos) + systemic / in life observation / clinical signs / abnormal motor movement + systemic…): 0.75 mg/kg/day
LEL (rat [2]): 3 mg/kg/day
LOAEL (rat [2]): 3 mg/kg/day
NEL (rat [2]): 0.75 mg/kg/day
NOAEL (rat [2]): 0.75 mg/kg/day
LOAEL (rat [3]; systemic / organ weight / liver / absolute): 6 mg/kg/day
LEL (rat [3]; systemic / organ weight / liver / absolute + systemic / in life observation / body weight / body weight gain): 6 mg/kg/day
NEL (rat [3]; [13]): 1 mg/kg/day
NOAEL (rat [3]; [13]): 1 mg/kg/day
LOAEL (dog [4]; systemic / hematology / erythrocyte (rbc) count differential / erythrocyte (rbc) + systemic / hematology / hemoglobin (hgb) / hemoglobin (…): 10 mg/kg/day
LEL (dog [4]; [14]): 0.1 mg/kg/day
NEL (dog [4]; [14]): < 0.1 mg/kg/day
NOAEL (dog [4]; systemic / in life observation / clinical signs / watery stools + systemic / hematology / erythrocyte (rbc) count differential / erythrocyte…): 1 mg/kg/day
LEL (rat [5]; [15]): 0.75 mg/kg/day
LOAEL (rat [5]; [15]): 0.75 mg/kg/day
NEL (rat [5]; [15]): < 0.75 mg/kg/day
NOAEL (rat [5]; [15]): < 0.75 mg/kg/day
LEL (rat [5]; [16]): 3 mg/kg/day
LOAEL (rat [5]; [16]): 3 mg/kg/day
NEL (rat [5]; [16]): 0.75 mg/kg/day
NOAEL (rat [5]; [16]): 0.75 mg/kg/day
LEL (dog [6]): 3 mg/kg/day
LOAEL (dog [6]): 3 mg/kg/day
NEL (dog [6]): 1 mg/kg/day
NOAEL (dog [6]): 1 mg/kg/day
LEL (rat [7]; [17]): 12 mg/kg/day
LOAEL (rat [7]; [17]): > 12 mg/kg/day
NEL (rat [7]; [17]): 3 mg/kg/day
NOAEL (rat [7]; [17]): ≥ 12 mg/kg/day
LOAEL (rat [7]; group: maternal, systemic / in life observation / body weight / body weight gain + reproductive / offspring survival early / birth index / live birth index): 12 mg/kg/day
LEL (rat [7]; group: maternal, systemic / in life observation / body weight / body weight gain + reproductive / offspring survival early / birth index / live birth index…): 12 mg/kg/day
NEL (rat [7]; [18]): 3 mg/kg/day
NOAEL (rat [7]; [18]): 3 mg/kg/day

CC(=O)O[C@]1(C(C)=O)CC[C@H]2[C@@H]3C=C(Cl)C4=CC(=O)[C@@H]5C[C@@H]5[C@]4(C)[C@H]3CC[C@@]21C [Cyproterone acetate]
LEL (mouse [8]): 125 mg/kg/day
LOAEL (mouse [8]): > 125 mg/kg/day
NEL (mouse [8]): < 125 mg/kg/day
NOAEL (mouse [8]): ≥ 125 mg/kg/day
LEL (mouse [9]): 120 mg/kg/day
LOAEL (mouse [9]): > 120 mg/kg/day
NEL (mouse [9]): < 120 mg/kg/day
NOAEL (mouse [9]): ≥ 120 mg/kg/day

S=C([S-])NCCNC(=S)[S-].[Na+].[Na+] [Nabam-sodium]
LEL (rabbit; [19]): 2.62 mg/kg/day
LOAEL (rabbit; [19]): 2.62 mg/kg/day
NEL (rabbit; [19]): 0.328 mg/kg/day
NOAEL (rabbit; [19]): 0.328 mg/kg/day
LEL (rabbit; [20]): 32.8 mg/kg/day
LOAEL (rabbit; [20]): 32.8 mg/kg/day
NEL (rabbit; [20]): 2.62 mg/kg/day
NOAEL (rabbit; [20]): 2.62 mg/kg/day
LEL (rat [10]): 80 mg/kg/day
LOAEL (rat [10]): 80 mg/kg/day
NEL (rat [10]): 0.8 mg/kg/day
NOAEL (rat [10]): 0.8 mg/kg/day
LEL (rat [11]; [21]): 15 mg/kg/day
NEL (rat [11]; [21]): < 15 mg/kg/day
NOAEL (rat [11]; systemic / clinical chemistry / triiodothyronine (t3) / triiodothyronine (t3), total + systemic / in life observation / clinical signs / …): 15 mg/kg/day
LOAEL (rat [11]; systemic / in life observation / clinical signs / erythema): 150 mg/kg/day
